This is an account of results in US8883749B2, “Transcription factor inhibitors and related compositions, formulations and methods” (The Ohio State University, priority 2009, dated 2014).

Molecules are shown by their SMILES. pIC50: −log10 of the molar value.

The target in series [1] is T1, Fes (Homo sapiens, UniProt P07332).
T1 construct: purchased Millipore UK Limited (Dundee, UK) or Reaction Biology Corp. (Malvern, Pa.)
Description: Kinase profiler assay. Conditions: 10 concentrations, 100 μM highest. It counts as biochemical.

The target of series [2] is T2, JAK2 (Homo sapiens, UniProt O60674).
T2 construct: purchased Millipore UK Limited (Dundee, UK) or Reaction Biology Corp. (Malvern, Pa.)
Description: Kinase profiler assay. It counts as biochemical. Conditions: 10 concentrations, 100 μM highest.

Series [3] deals with T3, Bmx (Homo sapiens, UniProt P51813).
T3 construct: purchased Millipore UK Limited (Dundee, UK) or Reaction Biology Corp. (Malvern, Pa.)
The series can be described thus: Kinase profiler assay. Format: biochemical. Conditions: 10 concentrations, 100 μM highest.

Series [4] concerns the target T4, c-SRC (Homo sapiens, UniProt P12931).
T4 construct: purchased Millipore UK Limited (Dundee, UK) or Reaction Biology Corp. (Malvern, Pa.)
Description: Kinase profiler assay. The following applies: 10 concentrations, 100 μM highest. Format: biochemical.

Series [5] deals with T5, AKT1 (Homo sapiens, UniProt P31749).
T5 construct: purchased Millipore UK Limited (Dundee, UK) or Reaction Biology Corp. (Malvern, Pa.)
The series can be described thus: Kinase profiler assay. It counts as biochemical. The following applies: 10 concentrations, 100 μM highest.

Series [6] addresses T6, CDK4/CyclinD1 (Homo sapiens, UniProt P11802).
T6 construct: purchased Millipore UK Limited (Dundee, UK) or Reaction Biology Corp. (Malvern, Pa.)
The series can be described thus: Kinase profiler assay. Format: biochemical. Conditions: 10 concentrations, 100 μM highest.

Series [7] addresses T7, CDK6/CyclinD1 (Homo sapiens, UniProt Q00534).
T7 construct: purchased Millipore UK Limited (Dundee, UK) or Reaction Biology Corp. (Malvern, Pa.)
Description: Kinase profiler assay. The following applies: 10 concentrations, 100 μM highest. It counts as biochemical.

In series [8] the target is T8, CHK1 (Homo sapiens, UniProt O14757).
T8 construct: purchased Millipore UK Limited (Dundee, UK) or Reaction Biology Corp. (Malvern, Pa.)
The series can be described thus: Kinase profiler assay. Format: biochemical. Conditions: 10 concentrations, 100 μM highest.

Series [9] concerns the target T9, C-Kit (Homo sapiens, UniProt P10721).
T9 construct: purchased Millipore UK Limited (Dundee, UK) or Reaction Biology Corp. (Malvern, Pa.)
The series can be described thus: Kinase profiler assay. Format: biochemical. Conditions: 10 concentrations, 100 μM highest.

The target of series [10] is T10, C-RAF (Homo sapiens, UniProt P04049).
T10 construct: purchased Millipore UK Limited (Dundee, UK) or Reaction Biology Corp. (Malvern, Pa.)
The series can be described thus: Kinase profiler assay. It counts as biochemical. The following applies: 10 concentrations, 100 μM highest.

In series [11] the target is T11, EGFR (Homo sapiens, UniProt P00533).
T11 construct: purchased Millipore UK Limited (Dundee, UK) or Reaction Biology Corp. (Malvern, Pa.)
The series can be described thus: Kinase profiler assay. Format: biochemical. Conditions: 10 concentrations, 100 μM highest.

Series [12] deals with T12, Erb B2/H ER2 (Homo sapiens, UniProt P04626).
T12 construct: purchased Millipore UK Limited (Dundee, UK) or Reaction Biology Corp. (Malvern, Pa.)
The series can be described thus: Kinase profiler assay. Format: biochemical. The following applies: 10 concentrations, 100 μM highest.

The target in series [13] is T13, Met (Homo sapiens, UniProt P08581).
T13 construct: purchased Millipore UK Limited (Dundee, UK) or Reaction Biology Corp. (Malvern, Pa.)
The series can be described thus: Kinase profiler assay. Format: biochemical. The following applies: 10 concentrations, 100 μM highest.

For series [14], the target named is T14, Pyk2 (Homo sapiens, UniProt Q14289).
T14 construct: purchased Millipore UK Limited (Dundee, UK) or Reaction Biology Corp. (Malvern, Pa.)
The series can be described thus: Kinase profiler assay. Format: biochemical. Conditions: 10 concentrations, 100 μM highest.

Series [15] deals with T15, Syk (Homo sapiens, UniProt P43405).
T15 construct: purchased Millipore UK Limited (Dundee, UK) or Reaction Biology Corp. (Malvern, Pa.)
Description: Kinase profiler assay. It counts as biochemical. Conditions: 10 concentrations, 100 μM highest.

Series [16] has as its target T16, Fyn (Homo sapiens, UniProt P06241).
T16 construct: purchased Millipore UK Limited (Dundee, UK) or Reaction Biology Corp. (Malvern, Pa.)
The series can be described thus: Kinase profiler assay. Format: biochemical. The following applies: 10 concentrations, 100 μM highest.

Series [17] has as its target T17, Yes (Homo sapiens, UniProt P07947).
T17 construct: purchased Millipore UK Limited (Dundee, UK) or Reaction Biology Corp. (Malvern, Pa.)
The series can be described thus: Kinase profiler assay. Format: biochemical. The following applies: 10 concentrations, 100 μM highest.

For series [18], the target named is T18, mTOR (Homo sapiens, UniProt P42345).
T18 construct: purchased Millipore UK Limited (Dundee, UK) or Reaction Biology Corp. (Malvern, Pa.)
The series can be described thus: Kinase profiler assay. Format: biochemical. Conditions: 10 concentrations, 100 μM highest.

In series [19] the target is T19, PAK1 (Homo sapiens, UniProt Q13153).
T19 construct: purchased Millipore UK Limited (Dundee, UK) or Reaction Biology Corp. (Malvern, Pa.)
Description: Kinase profiler assay. It counts as biochemical. Conditions: 10 concentrations, 100 μM highest.

Series [20] addresses T20, PDK1 (Homo sapiens, UniProt O15530).
T20 construct: purchased Millipore UK Limited (Dundee, UK) or Reaction Biology Corp. (Malvern, Pa.)
Description: Kinase profiler assay. It counts as biochemical. The following applies: 10 concentrations, 100 μM highest.

Series [21] addresses T21, P13K (P110a/85a) (Homo sapiens, UniProt P42336).
T21 construct: purchased Millipore UK Limited (Dundee, UK) or Reaction Biology Corp. (Malvern, Pa.)
Description: Kinase profiler assay. Format: biochemical. The following applies: 10 concentrations, 100 μM highest.

Series [22] concerns the target T22, P13K (P110b/85a) (Homo sapiens, UniProt P42338).
T22 construct: purchased Millipore UK Limited (Dundee, UK) or Reaction Biology Corp. (Malvern, Pa.)
The series can be described thus: Kinase profiler assay. It counts as biochemical. Conditions: 10 concentrations, 100 μM highest.

Series [23] deals with T23, PKC-b (Homo sapiens, UniProt P05771).
T23 construct: purchased Millipore UK Limited (Dundee, UK) or Reaction Biology Corp. (Malvern, Pa.)
The series can be described thus: Kinase profiler assay. The following applies: 10 concentrations, 100 μM highest. It counts as biochemical.

Series [24] has as its target T24, TAK1 (Homo sapiens, UniProt O43318).
T24 construct: purchased Millipore UK Limited (Dundee, UK) or Reaction Biology Corp. (Malvern, Pa.)
Description: Kinase profiler assay. Format: biochemical. Conditions: 10 concentrations, 100 μM highest.

Series [25] has as its target T25, VEGFR1 (Homo sapiens, UniProt P17948).
T25 construct: purchased Millipore UK Limited (Dundee, UK) and Reaction Biology Corp. (Malvern, Pa.)
Description: Kinase profiler assay. It counts as biochemical. The following applies: 10 concentrations, 100 μM highest.

Series [26] deals with MDA-MB-231 cells. Description: Soft agar colony formation assay. Format: cell-based, human. Conditions: LLL12 1 μM or 5 μM, two weeks. The protocol: A base 0.6% agar gel with 10% FBS in DMEM was prepared and added to the wells of a 6-well culture dish. […] The cells were maintained at 37° C. and allowed to grow for two weeks. The colonies were stained using MTT dye (100 μL per well). Pictures of the colonies were taken using a Leica MZ 16FA inverted microscope (Leica Microsystems) with a 7.4 Slider Camera (Diagnostic Instruments Inc.). The colonies were scored by counting and numbers were normalized as a percentage of colonies formed in DMSO.

The subject of series [27] is HPDE, HMEC, HH and WI-38 cells. The series can be described thus: Western blot, cleaved PARP and caspase-3 in normal cells. Conditions: LLL12 5 μM or 10 μM, 24 hours. For orientation: Immunoblotting shows a protein as a band on a membrane.
In series [28] the test system is HPAC pancreatic cancer cells. Description: MTT cell viability assay. It counts as cell-based, human. The following applies: 72 hours, 10% FBS, read-out: half-maximal inhibitory concentration (IC50), cell viability. The protocol: (§1) STAT3 activation is important for tumor cell proliferation and survival.
(§2) The cells were incubated at 37° C. for a period of 72 hours. 3-(4,5-Dimethylthiazolyl)-2,5-diphenyltetrazolium bromide (MTT) viability assay was done according to manufacturer's protocol (Roche Diagnostics, Mannheim, Germany). […] Half-maximal inhibitory concentrations (IC50) were determined using Sigma Plot 9.0 Software (Systat Software Inc., San Jose, Calif.).
(In general: Formazan colour is commonly taken as a measure of viable cells.)

Series [29] relates to MDA-MB-231 breast cancer cells. Description: MTT cell viability assay. Format: cell-based, human. The following applies: MDA-MB-231, MTT, 72 hours, 10% FBS; read-out: half-maximal inhibitory concentration (IC50), cell viability. The protocol:
as §1, §2

Series [30] has as its system PANC-1 pancreatic cancer cells. Description: MTT cell viability assay. Conditions: PANC-1, MTT, 72 hours, 10% FBS; read-out: half-maximal inhibitory concentration (IC50), cell viability. Format: cell-based, human. The method, then:
as §1, §2

The subject of series [31] is SK-BR-3 breast cancer cells. Description: MTT cell viability assay. Format: cell-based, human. Conditions: SK-BR-3, MTT, 72 hours, 10% FBS; read-out: half-maximal inhibitory concentration (IC50), cell viability. The method, then:
as §1, §2

Series [32] relates to U373 glioblastoma cells. Description: MTT cell viability assay. Format: cell-based, human. The following applies: 72 hours, 10% FBS, read-out: half-maximal inhibitory concentration (IC50), cell viability. The method, then:
as §1, §2

Series [33] deals with U87 glioblastoma cells. The series can be described thus: MTT cell viability assay. Format: cell-based, human. The following applies: 72 hours, 10% FBS, read-out: half-maximal inhibitory concentration (IC50), cell viability. The method, then:
as §1, §2

T6 sequence (P11802 whole entry): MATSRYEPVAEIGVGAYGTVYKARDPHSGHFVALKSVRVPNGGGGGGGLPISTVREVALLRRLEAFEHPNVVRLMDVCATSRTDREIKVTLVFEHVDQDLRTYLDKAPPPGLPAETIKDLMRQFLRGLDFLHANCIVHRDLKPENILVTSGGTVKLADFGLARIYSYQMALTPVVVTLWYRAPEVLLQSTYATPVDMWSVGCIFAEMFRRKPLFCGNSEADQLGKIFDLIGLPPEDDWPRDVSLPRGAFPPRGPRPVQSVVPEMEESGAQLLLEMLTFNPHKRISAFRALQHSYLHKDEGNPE
T6 sequence (P24385 whole entry partner): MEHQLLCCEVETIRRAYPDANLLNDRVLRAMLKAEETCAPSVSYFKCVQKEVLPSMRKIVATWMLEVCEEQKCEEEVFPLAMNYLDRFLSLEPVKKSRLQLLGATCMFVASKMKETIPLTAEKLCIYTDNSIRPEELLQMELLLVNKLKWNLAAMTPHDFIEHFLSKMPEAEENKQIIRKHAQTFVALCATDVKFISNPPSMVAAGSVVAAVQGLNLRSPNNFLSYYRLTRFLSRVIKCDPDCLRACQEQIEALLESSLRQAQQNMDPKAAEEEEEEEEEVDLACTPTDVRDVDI
T25 sequence (P17948 27-1338): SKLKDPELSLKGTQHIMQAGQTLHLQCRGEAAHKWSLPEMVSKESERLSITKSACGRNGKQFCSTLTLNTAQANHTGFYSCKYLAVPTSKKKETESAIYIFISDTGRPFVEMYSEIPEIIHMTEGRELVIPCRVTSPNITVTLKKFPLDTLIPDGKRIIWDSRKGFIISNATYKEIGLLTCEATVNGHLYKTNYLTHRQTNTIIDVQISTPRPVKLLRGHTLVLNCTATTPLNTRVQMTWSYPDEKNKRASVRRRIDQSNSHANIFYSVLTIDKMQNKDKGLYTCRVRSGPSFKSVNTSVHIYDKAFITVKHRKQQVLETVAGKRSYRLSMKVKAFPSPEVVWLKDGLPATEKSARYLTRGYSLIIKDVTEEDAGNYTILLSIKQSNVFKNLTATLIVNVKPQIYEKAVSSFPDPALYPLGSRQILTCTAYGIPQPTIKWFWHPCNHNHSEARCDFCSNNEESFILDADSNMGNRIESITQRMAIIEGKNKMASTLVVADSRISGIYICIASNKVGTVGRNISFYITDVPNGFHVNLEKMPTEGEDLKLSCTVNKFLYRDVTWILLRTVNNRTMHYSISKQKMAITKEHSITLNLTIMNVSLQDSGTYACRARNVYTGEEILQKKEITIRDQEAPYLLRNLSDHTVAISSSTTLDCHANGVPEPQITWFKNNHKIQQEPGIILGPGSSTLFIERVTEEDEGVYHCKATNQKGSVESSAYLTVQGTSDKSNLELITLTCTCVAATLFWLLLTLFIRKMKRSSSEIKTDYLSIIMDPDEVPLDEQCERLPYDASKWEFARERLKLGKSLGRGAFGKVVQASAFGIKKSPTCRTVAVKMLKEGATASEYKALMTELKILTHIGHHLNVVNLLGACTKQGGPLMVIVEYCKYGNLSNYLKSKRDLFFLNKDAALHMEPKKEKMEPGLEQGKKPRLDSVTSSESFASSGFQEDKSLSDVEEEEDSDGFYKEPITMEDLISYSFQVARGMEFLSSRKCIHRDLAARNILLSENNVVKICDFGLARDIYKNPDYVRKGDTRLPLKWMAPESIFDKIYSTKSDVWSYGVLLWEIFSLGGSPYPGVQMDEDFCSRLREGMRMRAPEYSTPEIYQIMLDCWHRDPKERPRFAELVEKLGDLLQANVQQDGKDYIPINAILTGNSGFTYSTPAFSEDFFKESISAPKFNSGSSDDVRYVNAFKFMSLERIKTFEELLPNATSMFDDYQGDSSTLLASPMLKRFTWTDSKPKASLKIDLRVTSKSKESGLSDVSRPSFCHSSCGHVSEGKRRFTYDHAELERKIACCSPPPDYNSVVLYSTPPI
T12 sequence (P04626 23-1255): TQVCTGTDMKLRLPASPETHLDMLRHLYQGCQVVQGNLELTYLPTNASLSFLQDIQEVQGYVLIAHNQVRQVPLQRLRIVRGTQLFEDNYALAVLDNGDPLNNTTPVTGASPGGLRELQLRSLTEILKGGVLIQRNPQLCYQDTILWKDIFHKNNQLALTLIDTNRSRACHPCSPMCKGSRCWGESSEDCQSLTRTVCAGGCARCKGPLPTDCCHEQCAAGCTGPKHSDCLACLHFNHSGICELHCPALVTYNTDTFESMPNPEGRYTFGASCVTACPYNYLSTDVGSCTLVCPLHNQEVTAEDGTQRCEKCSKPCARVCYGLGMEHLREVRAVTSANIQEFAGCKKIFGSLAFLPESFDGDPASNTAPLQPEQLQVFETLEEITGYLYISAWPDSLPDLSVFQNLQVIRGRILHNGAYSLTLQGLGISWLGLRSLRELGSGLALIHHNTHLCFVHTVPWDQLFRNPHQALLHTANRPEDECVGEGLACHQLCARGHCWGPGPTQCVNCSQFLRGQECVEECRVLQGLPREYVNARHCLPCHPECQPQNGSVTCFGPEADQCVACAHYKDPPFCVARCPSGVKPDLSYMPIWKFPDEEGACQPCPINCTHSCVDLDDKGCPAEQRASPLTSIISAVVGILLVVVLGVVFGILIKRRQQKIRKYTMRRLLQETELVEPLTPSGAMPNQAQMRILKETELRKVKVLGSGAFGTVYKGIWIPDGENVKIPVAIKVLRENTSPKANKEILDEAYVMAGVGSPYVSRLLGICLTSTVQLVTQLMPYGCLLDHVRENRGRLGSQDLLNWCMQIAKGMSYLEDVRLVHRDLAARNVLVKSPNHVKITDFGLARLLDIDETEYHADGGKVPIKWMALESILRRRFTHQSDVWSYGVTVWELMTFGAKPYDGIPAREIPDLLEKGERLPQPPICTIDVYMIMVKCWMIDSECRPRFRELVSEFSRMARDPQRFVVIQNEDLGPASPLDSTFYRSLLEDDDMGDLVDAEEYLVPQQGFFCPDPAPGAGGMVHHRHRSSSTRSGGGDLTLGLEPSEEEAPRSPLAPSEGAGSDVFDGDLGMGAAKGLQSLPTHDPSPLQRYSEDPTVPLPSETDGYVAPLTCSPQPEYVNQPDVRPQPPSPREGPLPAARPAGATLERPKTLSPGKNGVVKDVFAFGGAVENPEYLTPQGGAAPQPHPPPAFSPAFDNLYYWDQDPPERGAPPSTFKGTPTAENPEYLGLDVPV
T7 sequence (Q00534 whole entry): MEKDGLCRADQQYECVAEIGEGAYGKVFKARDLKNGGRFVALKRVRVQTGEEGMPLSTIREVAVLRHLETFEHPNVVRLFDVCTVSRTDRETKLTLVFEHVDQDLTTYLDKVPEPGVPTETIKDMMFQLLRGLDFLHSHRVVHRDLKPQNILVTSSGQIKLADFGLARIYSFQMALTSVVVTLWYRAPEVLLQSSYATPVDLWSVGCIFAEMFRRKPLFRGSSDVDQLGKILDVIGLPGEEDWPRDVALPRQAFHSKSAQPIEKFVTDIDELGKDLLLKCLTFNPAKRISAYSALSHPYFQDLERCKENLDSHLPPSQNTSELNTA
T7 sequence (P24385 whole entry partner): as the sequence (P24385 whole entry partner) above
T9 sequence (P10721 26-976): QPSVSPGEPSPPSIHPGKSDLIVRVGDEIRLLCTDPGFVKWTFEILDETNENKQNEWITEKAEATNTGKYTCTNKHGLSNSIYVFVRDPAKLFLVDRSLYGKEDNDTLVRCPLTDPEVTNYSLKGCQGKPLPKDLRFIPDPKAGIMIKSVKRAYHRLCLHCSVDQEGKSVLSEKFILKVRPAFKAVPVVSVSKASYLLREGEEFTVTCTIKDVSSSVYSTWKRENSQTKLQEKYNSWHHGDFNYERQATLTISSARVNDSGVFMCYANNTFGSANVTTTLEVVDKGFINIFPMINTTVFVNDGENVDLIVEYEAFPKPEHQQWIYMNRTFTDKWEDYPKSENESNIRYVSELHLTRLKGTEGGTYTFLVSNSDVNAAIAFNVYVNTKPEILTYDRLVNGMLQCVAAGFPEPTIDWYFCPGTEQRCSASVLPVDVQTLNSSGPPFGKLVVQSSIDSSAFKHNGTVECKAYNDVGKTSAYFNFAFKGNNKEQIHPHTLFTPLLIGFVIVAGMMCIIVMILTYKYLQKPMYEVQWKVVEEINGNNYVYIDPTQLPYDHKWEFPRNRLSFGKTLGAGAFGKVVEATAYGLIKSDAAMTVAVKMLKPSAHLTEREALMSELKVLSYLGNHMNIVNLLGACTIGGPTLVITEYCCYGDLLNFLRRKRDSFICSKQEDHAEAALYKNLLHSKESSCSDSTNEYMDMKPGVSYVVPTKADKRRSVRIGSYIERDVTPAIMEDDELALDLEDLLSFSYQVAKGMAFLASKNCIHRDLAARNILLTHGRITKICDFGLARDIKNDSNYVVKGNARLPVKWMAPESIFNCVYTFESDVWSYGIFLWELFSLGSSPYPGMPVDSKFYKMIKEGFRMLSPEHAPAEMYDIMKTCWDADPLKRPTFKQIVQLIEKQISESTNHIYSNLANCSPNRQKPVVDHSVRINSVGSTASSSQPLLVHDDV
T5 sequence (P31749 whole entry): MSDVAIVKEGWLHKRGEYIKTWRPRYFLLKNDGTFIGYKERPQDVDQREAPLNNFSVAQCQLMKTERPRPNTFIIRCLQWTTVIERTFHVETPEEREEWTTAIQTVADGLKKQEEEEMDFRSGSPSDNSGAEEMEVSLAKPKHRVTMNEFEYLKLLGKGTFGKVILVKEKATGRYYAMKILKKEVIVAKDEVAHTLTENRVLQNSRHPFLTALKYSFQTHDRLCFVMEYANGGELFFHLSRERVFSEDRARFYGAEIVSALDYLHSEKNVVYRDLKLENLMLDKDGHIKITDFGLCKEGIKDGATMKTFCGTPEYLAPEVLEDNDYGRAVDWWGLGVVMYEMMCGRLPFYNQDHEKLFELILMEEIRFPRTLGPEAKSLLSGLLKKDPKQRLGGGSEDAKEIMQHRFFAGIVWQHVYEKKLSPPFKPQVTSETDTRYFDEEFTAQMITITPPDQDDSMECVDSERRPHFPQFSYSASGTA

Take `NS(=O)(=O)c1cccc2c1C(=O)c1cccc(O)c1C2=O` [LLL12]: the pIC50 in [1] was below 4.00; in series [2] it was below 4.00; in series [3], below 4.00; in series [4] it was below 4.00; in series [5], below 4.00; in series [6] it was 4.11. Further, the pIC50 in [7], in series [8], in [9], in [10], in [11] and in [12] was below 4.00 each time. The pIC50 in series [13], in series [14], in series [15], in series [16], in [17] and in series [18] was below 4.00 throughout. In addition, the pIC50 in series [19], in series [20], in series [21], in [22], in series [23] and in series [24] was below 4.00 throughout. The molecule further gave a pIC50 in series [25] below 4.00. The “decrease in colony formation compared to the DMSO control” value in [26] was “over 95%”. For the same molecule, in series [27], the “cleaved PARP or caspase-3 in cells without elevated STAT3 phosphorylation” value is on record as “did not induce cleaved PARP or caspase-3”.
Turning to `Cc1ccc(S(=O)(=O)OCC(=O)Nc2ccc(C(=O)O)c(O)c2)cc1` [S3I-201], the pIC50 was below 4.00 in series [28]; below 4.00 in series [29]; below 4.00 in series [30]; below 4.00 in [31]; 4.28 in series [32]; 4.26 in series [33].
